Measured values as given in ChEMBL document CHEMBL4145553, “Design, synthesis, and biological evaluation of novel amide and hydrazide based thioether analogs targeting Histone deacteylase (HDAC) enzymes” (Eur J Med Chem, 2018).
Calls of active or inactive are those of the source. No cut-off for these calls is given here.

How the values were obtained:
COLO 205 = experiment: Growth inhibition of human COLO205 cells assessed as cell growth at 10^-4 M incubated for 48 hrs by sulforhodamine B assay relative to control; assay type: functional; settings: COLO 205, 48 h, read-out: Activity
MOLT-4 [1] = experiment: Growth inhibition of human MOLT4 cells assessed as cell growth at 10^-4 M incubated for 48 hrs by sulforhodamine B assay relative to control; assay type: functional; settings: MOLT-4, 48 h, read-out: Activity
SNB-75 = experiment: Growth inhibition of human SNB75 cells incubated for 48 hrs by sulforhodamine B assay; assay type: functional; settings: SNB-75, 48 h
HL-60 = experiment: Induction of apoptosis in human HL60 cells assessed as increase in gammaH2ax expression by qRT-PCR method; assay type: functional, cell-based
U-251 [2] = experiment: Growth inhibition of human U251 cells assessed as cell growth at 10^-7 M incubated for 48 hrs by sulforhodamine B assay relative to control; assay type: functional; settings: U-251, 48 h, read-out: Activity
T47D = experiment: Growth inhibition of human T47D cells assessed as cell growth at 10^-7 M incubated for 48 hrs by sulforhodamine B assay relative to control; assay type: functional; settings: read-out: Activity
MCF7 = experiment: Growth inhibition of human MCF7 cells assessed as cell growth at 10^-7 M incubated for 48 hrs by sulforhodamine B assay relative to control; assay type: functional; settings: MCF7, 48 h, read-out: Activity
SN12C = experiment: Growth inhibition of human SN12C cells incubated for 48 hrs by sulforhodamine B assay; assay type: functional
Malme-3M = experiment: Growth inhibition of human MALME-3M cells assessed as cell growth at 10^-4 M incubated for 48 hrs by sulforhodamine B assay relative to control; assay type: functional; settings: read-out: Activity
MDA-MB-231 = experiment: Growth inhibition of human MDA-MB-231 cells incubated for 48 hrs by sulforhodamine B assay; assay type: functional; settings: MDA-MB-231, 48 h
MOLT-4 [3] = experiment: Growth inhibition of human MOLT4 cells incubated for 48 hrs by sulforhodamine B assay; assay type: functional; settings: MOLT-4, 48 h
ACHN = experiment: Growth inhibition of human ACHN cells assessed as cell growth at 10^-6 M incubated for 48 hrs by sulforhodamine B assay relative to control; assay type: functional; settings: read-out: Activity
A498 = experiment: Growth inhibition of human A498 cells assessed as cell growth at 10^-6 M incubated for 48 hrs by sulforhodamine B assay relative to control; assay type: functional; settings: A498, 48 h, read-out: Activity
MDA-MB-468 = experiment: Growth inhibition of human MDA-MB-468 cells assessed as cell growth at 10^-8 M incubated for 48 hrs by sulforhodamine B assay relative to control; assay type: functional; settings: MDA-MB-468, 48 h, read-out: Activity
A549 = experiment: Growth inhibition of human A549/ATCC cells incubated for 48 hrs by sulforhodamine B assay; assay type: functional; settings: A549, 48 h
MOLT-4 [4] = experiment: Growth inhibition of human MOLT4 cells assessed as cell growth at 10^-8 M incubated for 48 hrs by sulforhodamine B assay relative to control; assay type: functional; settings: MOLT-4, 48 h, read-out: Activity
MDA-MB-435 = experiment: Downregulation of HDAC8 mRNA expression in human MDA-MB-435 cells by qRT-PCR method; assay type: functional, cell-based
HCC 2998 = experiment: Growth inhibition of human HCC2998 cells assessed as cell growth at 10^-7 M incubated for 48 hrs by sulforhodamine B assay relative to control; assay type: functional; settings: HCC 2998, 48 h, read-out: Activity
Histone deacetylase 8 = Histone deacetylase 8 (Homo sapiens, UniProt Q9BY41); experiment: Inhibition of HDAC8 (unknown origin) by ELISA
HCT-15 [5] = experiment: Growth inhibition of human HCT15 cells assessed as cell growth at 10^-6 M incubated for 48 hrs by sulforhodamine B assay relative to control; assay type: functional; settings: HCT-15, 48 h, read-out: Activity
U-251 [6] = experiment: Growth inhibition of human U251 cells assessed as cell growth at 10^-8 M incubated for 48 hrs by sulforhodamine B assay relative to control; assay type: functional; settings: U-251, 48 h, read-out: Activity
HOP-62 = experiment: Growth inhibition of human HOP62 cells assessed as cell growth at 10^-7 M incubated for 48 hrs by sulforhodamine B assay relative to control; assay type: functional; settings: HOP-62, 48 h, read-out: Activity
HT-29 = experiment: Growth inhibition of human HT-29 cells assessed as cell growth at 10^-4 M incubated for 48 hrs by sulforhodamine B assay relative to control; assay type: functional; settings: HT-29, 48 h, read-out: Activity
HCT-116 = experiment: Growth inhibition of human HCT116 cells assessed as cell growth at 10^-7 M incubated for 48 hrs by sulforhodamine B assay relative to control; assay type: functional; settings: HCT-116, 48 h, read-out: Activity
CCRF-CEM = experiment: Growth inhibition of human CCRF-CEM cells assessed as cell growth at 10^-4 M incubated for 48 hrs by sulforhodamine B assay relative to control; assay type: functional; settings: read-out: Activity
M14 = experiment: Growth inhibition of human M14 cells assessed as cell growth at 10^-5 M incubated for 48 hrs by sulforhodamine B assay relative to control; assay type: functional; settings: M14, 48 h, read-out: Activity
HCT-15 [7] = experiment: Growth inhibition of human HCT15 cells assessed as cell growth at 10^-5 M incubated for 48 hrs by sulforhodamine B assay relative to control; assay type: functional; settings: HCT-15, 48 h, read-out: Activity
NCI-H226 = experiment: Growth inhibition of human NCI-H226 cells assessed as cell growth at 10^-4 M incubated for 48 hrs by sulforhodamine B assay relative to control; assay type: functional; settings: NCI-H226, 48 h, read-out: Activity
LOX IMVI = experiment: Growth inhibition of human LOXIMVI cells incubated for 48 hrs by sulforhodamine B assay; assay type: functional
BT-549 = experiment: Growth inhibition of human BT549 cells assessed as cell growth at 10^-4 M incubated for 48 hrs by sulforhodamine B assay relative to control; assay type: functional; settings: BT-549, 48 h, read-out: Activity
[8] = read-out: LC50 (the source's name)
[9] = read-out: pLC50 (the source's name) (converted)

Histone deacetylase 8, sequence (Q9BY41 whole entry): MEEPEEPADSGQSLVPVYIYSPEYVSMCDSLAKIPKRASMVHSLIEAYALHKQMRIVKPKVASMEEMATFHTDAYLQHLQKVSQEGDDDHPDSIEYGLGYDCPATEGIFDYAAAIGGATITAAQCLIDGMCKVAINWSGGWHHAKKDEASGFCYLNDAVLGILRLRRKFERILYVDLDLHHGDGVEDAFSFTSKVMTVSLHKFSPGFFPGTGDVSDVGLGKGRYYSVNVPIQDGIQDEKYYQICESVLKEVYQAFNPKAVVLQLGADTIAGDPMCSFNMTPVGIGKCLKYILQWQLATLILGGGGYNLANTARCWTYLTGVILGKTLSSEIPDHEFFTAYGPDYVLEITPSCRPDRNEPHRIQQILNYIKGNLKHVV

CCS/C(Nc1ccccc1)=C(\C#N)C(=O)Nc1ccc(OC)cc1
growth at 100 µM (COLO 205): -17%
growth at 100 µM (MOLT-4 [1]): 18%
GI50 (SNB-75; read-out: GI50): 2.13 µM
CC50 (SNB-75; [8]): > 100 µM
TGI (SNB-75; read-out: TGI): 7.21 µM
GI50 (SNB-75; read-out: pGI50 (converted)): 2.14 µM
CC50 (SNB-75; [9]): > 100 µM
TGI (SNB-75; read-out: pTGI (converted)): 7.24 µM
Activity (HL-60): Active
growth at 0.1 µM (U-251 [2]): 98%
growth at 0.1 µM (T47D): 89%
growth at 0.1 µM (MCF7): 93%
GI50 (SN12C; read-out: GI50): 5.91 µM
CC50 (SN12C; [8]): > 100 µM
TGI (SN12C; read-out: TGI): > 100 µM
GI50 (SN12C; read-out: pGI50 (converted)): 5.89 µM
CC50 (SN12C; [9]): > 100 µM
TGI (SN12C; read-out: pTGI): > 100 µM
growth at 100 µM (Malme-3M): 45%
GI50 (MDA-MB-231; read-out: GI50): 4.14 µM
CC50 (MDA-MB-231; [8]): > 100 µM
TGI (MDA-MB-231; read-out: TGI): 36.5 µM
GI50 (MDA-MB-231; read-out: pGI50 (converted)): 4.17 µM
CC50 (MDA-MB-231; [9]): > 100 µM
TGI (MDA-MB-231; read-out: pTGI (converted)): 36.3 µM
GI50 (MOLT-4 [3]; read-out: GI50): 2.61 µM
CC50 (MOLT-4 [3]; [8]): > 100 µM
TGI (MOLT-4 [3]; read-out: TGI): > 100 µM
GI50 (MOLT-4 [3]; read-out: pGI50 (converted)): 2.63 µM
CC50 (MOLT-4 [3]; [9]): > 100 µM
TGI (MOLT-4 [3]; read-out: pTGI): > 100 µM
growth at 1 µM (ACHN): 90%
growth at 1 µM (A498): 78%
growth at 0.01 µM (MDA-MB-468): 105%
GI50 (A549; read-out: GI50): 5.91 µM
CC50 (A549; [8]): > 100 µM
TGI (A549; read-out: TGI): > 100 µM
GI50 (A549; read-out: pGI50 (converted)): 5.89 µM
CC50 (A549; [9]): > 100 µM
TGI (A549; read-out: pTGI): > 100 µM
growth at 0.01 µM (MOLT-4 [4]): 97%
Activity (MDA-MB-435): Active
growth at 0.1 µM (HCC 2998): 92%
IC50 (Histone deacetylase 8): 0.295 µM
growth at 1 µM (HCT-15 [5]): 53%
growth at 0.01 µM (U-251 [6]): 97%
growth at 0.1 µM (HOP-62): 84%
growth at 100 µM (HT-29): -8%
growth at 0.1 µM (HCT-116): 89%
growth at 100 µM (CCRF-CEM): 7%
growth at 10 µM (M14): 10%
growth at 10 µM (HCT-15 [7]): 16%
growth at 100 µM (NCI-H226): -15%
GI50 (LOX IMVI; read-out: GI50): 6.16 µM
CC50 (LOX IMVI; [8]): > 100 µM
TGI (LOX IMVI; read-out: TGI): > 100 µM
GI50 (LOX IMVI; read-out: pGI50 (converted)): 6.17 µM
CC50 (LOX IMVI; [9]): > 100 µM
TGI (LOX IMVI; read-out: pTGI): > 100 µM
growth at 100 µM (BT-549): 12%

CCS/C(Nc1ccccc1)=C(\C#N)C(=O)N/N=C\c1ccc(Cl)cc1Cl
growth at 100 µM (COLO 205): 3%
growth at 100 µM (MOLT-4 [1]): 19%
GI50 (SNB-75; read-out: GI50): 2.15 µM
CC50 (SNB-75; [8]): > 100 µM
TGI (SNB-75; read-out: TGI): 9.37 µM
GI50 (SNB-75; read-out: pGI50 (converted)): 2.14 µM
CC50 (SNB-75; [9]): > 100 µM
TGI (SNB-75; read-out: pTGI (converted)): 9.33 µM
Activity (HL-60): Active
growth at 0.1 µM (U-251 [2]): 98%
growth at 0.1 µM (T47D): 95%
growth at 0.1 µM (MCF7): 89%
GI50 (SN12C; read-out: GI50): 6.92 µM
CC50 (SN12C; [8]): > 100 µM
TGI (SN12C; read-out: TGI): > 100 µM
GI50 (SN12C; read-out: pGI50 (converted)): 6.92 µM
CC50 (SN12C; [9]): > 100 µM
TGI (SN12C; read-out: pTGI): > 100 µM
growth at 100 µM (Malme-3M): 26%
GI50 (MDA-MB-231; read-out: GI50): 4.75 µM
CC50 (MDA-MB-231; [8]): > 100 µM
TGI (MDA-MB-231; read-out: TGI): > 100 µM
GI50 (MDA-MB-231; read-out: pGI50 (converted)): 4.79 µM
CC50 (MDA-MB-231; [9]): > 100 µM
TGI (MDA-MB-231; read-out: pTGI (converted)): > 100 µM
GI50 (MOLT-4 [3]; read-out: GI50): 3.48 µM
CC50 (MOLT-4 [3]; [8]): > 100 µM
TGI (MOLT-4 [3]; read-out: TGI): > 100 µM
GI50 (MOLT-4 [3]; read-out: pGI50 (converted)): 3.47 µM
CC50 (MOLT-4 [3]; [9]): > 100 µM
TGI (MOLT-4 [3]; read-out: pTGI): > 100 µM
growth at 1 µM (ACHN): 92%
growth at 1 µM (A498): 68%
growth at 0.01 µM (MDA-MB-468): 108%
GI50 (A549; read-out: GI50): 4.63 µM
CC50 (A549; [8]): > 100 µM
TGI (A549; read-out: TGI): > 100 µM
GI50 (A549; read-out: pGI50 (converted)): 4.68 µM
CC50 (A549; [9]): > 100 µM
TGI (A549; read-out: pTGI): > 100 µM
growth at 0.01 µM (MOLT-4 [4]): 95%
Activity (MDA-MB-435): Active
growth at 0.1 µM (HCC 2998): 100%
IC50 (Histone deacetylase 8): 0.202 µM
growth at 1 µM (HCT-15 [5]): 77%
growth at 0.01 µM (U-251 [6]): 101%
growth at 0.1 µM (HOP-62): 85%
growth at 100 µM (HT-29): 9%
growth at 0.1 µM (HCT-116): 92%
growth at 100 µM (CCRF-CEM): 11%
growth at 10 µM (M14): -1%
growth at 10 µM (HCT-15 [7]): 19%
growth at 100 µM (NCI-H226): 11%
GI50 (LOX IMVI; read-out: GI50): 5.88 µM
CC50 (LOX IMVI; [8]): > 100 µM
TGI (LOX IMVI; read-out: TGI): > 100 µM
GI50 (LOX IMVI; read-out: pGI50 (converted)): 5.89 µM
CC50 (LOX IMVI; [9]): > 100 µM
TGI (LOX IMVI; read-out: pTGI): > 100 µM
growth at 100 µM (BT-549): 7%
